Results: PMC4727946 (The Journal of General Physiology, 2016)
Values belong to the molecule of their own block, whether it stands above or below them.

How the values were obtained:
Assay type in all cases: cell-based
Pannexin1 (Panx1) [1] = biological target: T1, Pannexin1 (Panx1) (Homo sapiens, UniProt Q96RD7); assay: whole-cell patch clamp of Panx1-transfected HEK293 cells, dose response
Pannexin1 (Panx1) [2] = biological target: T1, Pannexin1 (Panx1); assay: whole-cell patch clamp in transfected HEK293 cells
Pannexin1 (Panx1) [3] = biological target: T1, Pannexin1 (Panx1); assay: whole-cell patch clamp in transfected HEK293 cells; remark: listed apart in the source

T1 sequence (Q96RD7 whole entry): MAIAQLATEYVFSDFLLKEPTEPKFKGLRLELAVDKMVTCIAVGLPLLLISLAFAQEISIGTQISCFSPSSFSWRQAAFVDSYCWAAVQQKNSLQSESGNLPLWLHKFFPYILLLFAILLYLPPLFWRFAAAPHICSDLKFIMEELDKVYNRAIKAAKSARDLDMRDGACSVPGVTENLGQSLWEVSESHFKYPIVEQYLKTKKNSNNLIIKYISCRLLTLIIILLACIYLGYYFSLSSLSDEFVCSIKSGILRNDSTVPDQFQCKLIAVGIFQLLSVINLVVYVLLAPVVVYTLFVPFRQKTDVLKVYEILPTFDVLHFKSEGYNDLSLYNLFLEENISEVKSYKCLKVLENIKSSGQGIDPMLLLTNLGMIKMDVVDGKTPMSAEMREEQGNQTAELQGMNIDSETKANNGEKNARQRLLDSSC

IC50 (Pannexin1 (Panx1) [1]): ~2000 nM
Structure (SMILES): CC1(C)[C@@H](OC(=O)CCC(=O)O)CC[C@]2(C)[C@H]3C(=O)C=C4[C@@H]5C[C@@](C)(C(=O)O)CC[C@]5(C)CC[C@@]4(C)[C@]3(C)CC[C@@H]12 [carbenoxolone]

Structure (SMILES): COc1ccc(Cl)cc1C(=O)NCCc1ccc(S(=O)(=O)NC(=O)NC2CCCCC2)cc1 [glybenclamide]
whole-cell patch clamp in transfected HEK293 cells (150 μM) (Pannexin1 (Panx1) [2]): W74 is essential not only for CBX, but also for the other four Panx1 inhibitors to function

Structure (SMILES): CCCN(CCC)S(=O)(=O)c1ccc(C(=O)O)cc1 [probenecid]
whole-cell patch clamp in transfected HEK293 cells (3 mM and 10 mM) (Pannexin1 (Panx1) [3]): suggesting that binding of probenecid trapped Panx1 in a nonresting closed conformation
